Measurements from patent US8735425B2, “Tetrahydroisoquinoline derivative” (Daiichi Sankyo Company, Limited, priority 2008, dated 2014).

What was measured:
DGAT1 enzyme = target: T1, DGAT1 enzyme (Homo sapiens, UniProt O75907); assay: DGAT1 inhibitory activity test; format: biochemical; settings: test compound concentration of 0.05 μg/ml; read-out: Inhibitory Rate
T1 construct: made in house
T1 sequence (O75907 1-488): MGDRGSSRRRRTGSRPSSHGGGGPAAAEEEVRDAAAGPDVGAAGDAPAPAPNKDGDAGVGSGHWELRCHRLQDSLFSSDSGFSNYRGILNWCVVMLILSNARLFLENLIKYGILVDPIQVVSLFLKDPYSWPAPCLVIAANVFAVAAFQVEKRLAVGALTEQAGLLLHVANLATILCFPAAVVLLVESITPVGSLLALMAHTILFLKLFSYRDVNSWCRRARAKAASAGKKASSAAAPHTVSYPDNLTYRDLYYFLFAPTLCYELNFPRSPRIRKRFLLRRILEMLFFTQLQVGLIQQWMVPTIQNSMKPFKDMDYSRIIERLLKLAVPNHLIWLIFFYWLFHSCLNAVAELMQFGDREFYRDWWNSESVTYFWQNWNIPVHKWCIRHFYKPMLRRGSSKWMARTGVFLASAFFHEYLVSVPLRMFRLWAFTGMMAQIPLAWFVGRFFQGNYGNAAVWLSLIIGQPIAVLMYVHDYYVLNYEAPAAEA
Procedure, shortened: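 Reaction at 23° C for 30 min in 175 mM Tris-HCl pH 8.0, 8 mM MgCl2, 1 mg/ml BSA, 0.5% Triton X-100 with 0.3 mM 1,2-dioleoyl-sn-glycerol and 10 μM [14C]-oleoyl-CoA. Triglyceride extracted into heptane, separated by TLC, radioactivity quantified; % inhibition versus vehicle control, 0-min background subtracted.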

Male C57BL/6N mice = assay: Triglyceride absorption suppression after fat loading (in vivo DGAT1 inhibitory effect); settings: Mus musculus, po; dose of 10 mg/kg or lower, orally administered, mice fasted overnight, plasma triglyceride after fat loading; read-out: Triglyceride absorption suppressive activity
Procedure, shortened: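 Overnight-fasted male C57BL/6N mice dosed orally with compound (1 to 10 mg/kg in 0.5% methylcellulose), then given Pluronic-F127 1 g/kg i.p. and an oral 20% Intralipid load. Plasma triglyceride measured 1 to 4 h later. Absorption suppression (%) calculated against water-loaded and fat-loaded vehicle groups.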

Structure (SMILES): Cc1ccc(NC(=O)Nc2ccc3c(c2)CCN(C(=O)O[C@H]2CC[C@H](CC(=O)O)CC2)C3)cc1 [Example 71, trans-6-(3-p-tolyl-ureido)-3,4-dihydro-1H-isoquinoline-2-carboxylic acid 4-carboxymethyl-cyclohexyl ester]
- inhibition at 0.05 µg/mL (DGAT1 enzyme): ≥ 50%
- inhibition in vivo at up to 10 mg/kg (Male C57BL/6N mice): ≥ 60%

Structure (SMILES): CC(C)c1ccc(NC(=O)Nc2ccc3c(c2)CCN(C(=O)O[C@H]2CC[C@H](CC(=O)O)CC2)C3)cc1 [Example 72, trans-6-[3-(4-isopropyl-phenyl)-ureido]-3,4-dihydro-1H-isoquinoline-2-carboxylic acid 4-carboxymethyl-cyclohexyl ester]
- inhibition at 0.05 µg/mL (DGAT1 enzyme): ≥ 50%
- inhibition in vivo at up to 10 mg/kg (Male C57BL/6N mice): ≥ 60%

Structure (SMILES): CC(C)(C)c1ccc(NC(=O)Nc2ccc3c(c2)CCN(C(=O)O[C@H]2CC[C@H](CC(=O)O)CC2)C3)cc1 [Example 73, trans-6-[3-(4-tert-butyl-phenyl)-ureido]-3,4-dihydro-1H-isoquinoline-2-carboxylic acid 4-carboxymethyl-cyclohexyl ester]
- inhibition at 0.05 µg/mL (DGAT1 enzyme): ≥ 50%
- inhibition in vivo at up to 10 mg/kg (Male C57BL/6N mice): ≥ 60%

Structure (SMILES): N#Cc1cccc(NC(=O)Nc2ccc3c(c2)CCN(C(=O)O[C@H]2CC[C@H](CC(=O)O)CC2)C3)c1 [Example 74, trans-6-[3-(3-cyano-phenyl)-ureido]-3,4-dihydro-1H-isoquinoline-2-carboxylic acid 4-carboxymethyl-cyclohexyl ester]
- inhibition at 0.05 µg/mL (DGAT1 enzyme): ≥ 50%
- inhibition in vivo at up to 10 mg/kg (Male C57BL/6N mice): ≥ 60%

Structure (SMILES): CN(C)c1cccc(NC(=O)Nc2ccc3c(c2)CCN(C(=O)O[C@H]2CC[C@H](CC(=O)O)CC2)C3)c1 [Example 75, trans-6-[3-(3-dimethylamino-phenyl)-ureido]-3,4-dihydro-1H-isoquinoline-2-carboxylic acid 4-carboxymethyl-cyclohexyl ester]
- inhibition at 0.05 µg/mL (DGAT1 enzyme): ≥ 50%
- inhibition in vivo at up to 10 mg/kg (Male C57BL/6N mice): ≥ 60%

Structure (SMILES): CC(C)(C)c1cccc(NC(=O)Nc2ccc3c(c2)CCN(C(=O)O[C@H]2CC[C@H](CC(=O)O)CC2)C3)c1 [Example 76, trans-6-[3-(3-tert-butyl-phenyl)-ureido]-3,4-dihydro-1H-isoquinoline-2-carboxylic acid 4-carboxymethyl-cyclohexyl ester]
- inhibition at 0.05 µg/mL (DGAT1 enzyme): ≥ 50%
- inhibition in vivo at up to 10 mg/kg (Male C57BL/6N mice): ≥ 60%

Structure (SMILES): Cc1ccccc1NC(=O)Nc1ccc2c(c1)CCN(C(=O)O[C@H]1CC[C@H](CC(=O)O)CC1)C2 [Example 77, trans-6-(3-o-tolyl-ureido)-3,4-dihydro-1H-isoquinoline-2-carboxylic acid 4-carboxymethyl-cyclohexyl ester]
- inhibition at 0.05 µg/mL (DGAT1 enzyme): ≥ 50%
- inhibition in vivo at up to 10 mg/kg (Male C57BL/6N mice): ≥ 60%

Structure (SMILES): Cc1ccc(NC(=O)Nc2ccc3c(c2)CCN(C(=O)O[C@H]2CC[C@H](CC(=O)O)CC2)C3)cc1C [Example 78, trans-6-[3-(3,4-dimethyl-phenyl)-ureido]-3,4-dihydro-1H-isoquinoline-2-carboxylic acid 4-carboxymethyl-cyclohexyl ester]
- inhibition at 0.05 µg/mL (DGAT1 enzyme): ≥ 50%
- inhibition in vivo at up to 10 mg/kg (Male C57BL/6N mice): ≥ 60%

Structure (SMILES): CCOc1ccc(NC(=O)Nc2ccc3c(c2)CCN(C(=O)O[C@H]2CC[C@H](CC(=O)O)CC2)C3)cc1 [Example 80, trans-6-[3-(4-ethoxy-phenyl)-ureido]-3,4-dihydro-1H-isoquinoline-2-carboxylic acid 4-carboxymethyl-cyclohexyl ester]
- inhibition at 0.05 µg/mL (DGAT1 enzyme): ≥ 50%
- inhibition in vivo at up to 10 mg/kg (Male C57BL/6N mice): ≥ 60%

Structure (SMILES): CC(C)(C)NC(=O)Nc1ccc2c(c1)CCN(C(=O)O[C@H]1CC[C@H](CC(=O)O)CC1)C2 [Example 82, trans-6-(3-tert-butyl-ureido)-3,4-dihydro-1H-isoquinoline-2-carboxylic acid 4-carboxymethyl-cyclohexyl ester]
- inhibition at 0.05 µg/mL (DGAT1 enzyme): ≥ 50%
- inhibition in vivo at up to 10 mg/kg (Male C57BL/6N mice): ≥ 60%

Structure (SMILES): O=C(O)C[C@H]1CC[C@H](OC(=O)N2CCc3cc(NC(=O)NC4CCCC4)ccc3C2)CC1 [Example 83, trans-6-(3-cyclopentyl-ureido)-3,4-dihydro-1H-isoquinoline-2-carboxylic acid 4-carboxymethyl-cyclohexyl ester]
- inhibition at 0.05 µg/mL (DGAT1 enzyme): ≥ 50%
- inhibition in vivo at up to 10 mg/kg (Male C57BL/6N mice): ≥ 60%

Structure (SMILES): O=C(O)C[C@H]1CC[C@H](OC(=O)N2CCc3cc(NC(=O)NC4CCCCC4)ccc3C2)CC1 [Example 84, trans-6-(3-cyclohexyl-ureido)-3,4-dihydro-1H-isoquinoline-2-carboxylic acid 4-carboxymethyl-cyclohexyl ester]
- inhibition at 0.05 µg/mL (DGAT1 enzyme): ≥ 50%
- inhibition in vivo at up to 10 mg/kg (Male C57BL/6N mice): ≥ 60%

Structure (SMILES): O=C(O)C[C@H]1CC[C@H](OC(=O)N2CCc3cc(NC(=O)NCC4CCCCC4)ccc3C2)CC1 [Example 85, trans-6-(3-cyclohexylmethyl-ureido)-3,4-dihydro-1H-isoquinoline-2-carboxylic acid 4-carboxymethyl-cyclohexyl ester]
- inhibition at 0.05 µg/mL (DGAT1 enzyme): ≥ 50%
- inhibition in vivo at up to 10 mg/kg (Male C57BL/6N mice): ≥ 60%

Structure (SMILES): O=C(O)C[C@H]1CC[C@H](OC(=O)N2CCc3cc(NC(=O)NC45CC6CC(CC(C6)C4)C5)ccc3C2)CC1 [Example 86, trans-6-(3-adamantan-1-yl-ureido)-3,4-dihydro-1H-isoquinoline-2-carboxylic acid 4-carboxymethyl-cyclohexyl ester]
- inhibition at 0.05 µg/mL (DGAT1 enzyme): ≥ 50%
- inhibition in vivo at up to 10 mg/kg (Male C57BL/6N mice): ≥ 60%

Structure (SMILES): Cc1cncc(NC(=O)Nc2ccc3c(c2)CCN(C(=O)O[C@H]2CC[C@H](CC(=O)O)CC2)C3)c1 [Example 90, trans-6-[3-(5-methyl-pyridin-3-yl)-ureido]-3,4-dihydro-1H-isoquinoline-2-carboxylic acid 4-carboxymethyl-cyclohexyl ester]
- inhibition at 0.05 µg/mL (DGAT1 enzyme): ≥ 50%
- inhibition in vivo at up to 10 mg/kg (Male C57BL/6N mice): ≥ 60%

Structure (SMILES): O=C(O)C[C@H]1CC[C@H](OC(=O)N2CCc3cc(NC(=O)Nc4ccc(Cl)cn4)ccc3C2)CC1 [Example 91, trans-6-[3-(5-chloro-pyridin-2-yl)-ureido]-3,4-dihydro-1H-isoquinoline-2-carboxylic acid 4-carboxymethyl-cyclohexyl ester]
- inhibition at 0.05 µg/mL (DGAT1 enzyme): ≥ 50%
- inhibition in vivo at up to 10 mg/kg (Male C57BL/6N mice): ≥ 60%

Structure (SMILES): O=C(O)C[C@H]1CC[C@H](OC(=O)N2CCc3cc(NC(=O)Nc4ccc(Cl)nc4)ccc3C2)CC1 [Example 92, trans-6-[3-(6-chloro-pyridin-3-yl)-ureido]-3,4-dihydro-1H-isoquinoline-2-carboxylic acid 4-carboxymethyl-cyclohexyl ester]
- inhibition at 0.05 µg/mL (DGAT1 enzyme): ≥ 50%
- inhibition in vivo at up to 10 mg/kg (Male C57BL/6N mice): ≥ 60%

Structure (SMILES): Cc1cnc(NC(=O)Nc2ccc3c(c2)CCN(C(=O)O[C@H]2CC[C@H](CC(=O)O)CC2)C3)s1 [Example 95, trans-6-[3-(5-methyl-thiazol-2-yl)-ureido]-3,4-dihydro-1H-isoquinoline-2-carboxylic acid 4-carboxymethyl-cyclohexyl ester]
- inhibition at 0.05 µg/mL (DGAT1 enzyme): ≥ 50%
- inhibition in vivo at up to 10 mg/kg (Male C57BL/6N mice): ≥ 60%

Structure (SMILES): Cc1cc(NC(=O)Nc2ccc3c(c2)CCN(C(=O)O[C@H]2CC[C@H](CC(=O)O)CC2)C3)no1 [Example 97, trans-6-[3-(5-methyl-isoxazol-3-yl)-ureido]-3,4-dihydro-1H-isoquinoline-2-carboxylic acid 4-carboxymethyl-cyclohexyl ester]
- inhibition at 0.05 µg/mL (DGAT1 enzyme): ≥ 50%
- inhibition in vivo at up to 10 mg/kg (Male C57BL/6N mice): ≥ 60%

Structure (SMILES): C[C@@H]1C[C@H](CC(=O)O)CC[C@H]1OC(=O)N1CCc2cc(NC(=O)Nc3cccc(OC(F)(F)F)c3)ccc2C1 [Example 102, 6-[3-(3-trifluoromethoxy-phenyl)-ureido]-3,4-dihydro-1H-isoquinoline-2-carboxylic acidt-4-carboxymethyl-t-2-methyl-r-1-cyclohexyl ester]
- inhibition at 0.05 µg/mL (DGAT1 enzyme): ≥ 50%
- inhibition in vivo at up to 10 mg/kg (Male C57BL/6N mice): ≥ 60%

Structure (SMILES): CC(C(=O)O)[C@H]1CC[C@H](OC(=O)N2CCc3cc(NC(=O)Nc4ccccc4F)ccc3C2)CC1 (stereo partly drawn) [Example 103, trans-6-[3-(2-fluoro-phenyl)-ureido]-3,4-dihydro-1H-isoquinoline-2-carboxylic acid 4-(1-carboxy-ethyl)-cyclohexyl ester]
- inhibition at 0.05 µg/mL (DGAT1 enzyme): ≥ 50%
- inhibition in vivo at up to 10 mg/kg (Male C57BL/6N mice): ≥ 60%

Structure (SMILES): COc1cccc(NC(=O)Nc2ccc3c(c2)CCN(C(=O)O[C@H]2CC[C@H](C(C)C(=O)O)CC2)C3)c1 (stereo partly drawn) [Example 104, trans-6-[3-(3-methoxy-phenyl)-ureido]-3,4-dihydro-1H-isoquinoline-2-carboxylic acid 4-(1-carboxy-ethyl)-cyclohexyl ester]
- inhibition at 0.05 µg/mL (DGAT1 enzyme): ≥ 50%
- inhibition in vivo at up to 10 mg/kg (Male C57BL/6N mice): ≥ 60%

Structure (SMILES): CC(C(=O)O)[C@H]1CC[C@H](OC(=O)N2CCc3cc(NC(=O)Nc4ccccc4)ccc3C2)CC1 (stereo partly drawn) [Example 105, trans-6-(3-phenyl-ureido)-3,4-dihydro-1H-isoquinoline-2-carboxylic acid 4-(1-carboxy-ethyl)-cyclohexyl ester]
- inhibition at 0.05 µg/mL (DGAT1 enzyme): ≥ 50%
- inhibition in vivo at up to 10 mg/kg (Male C57BL/6N mice): ≥ 60%

Structure (SMILES): CC(C(=O)O)C1CCC(CC(=O)N2CCc3cc(NC(=O)Nc4ccccc4F)ccc3C2)CC1 (stereo not drawn) [Example 107, 2-[4-(2-{6-[3-(2-fluoro-phenyl)-ureido]-3,4-dihydro-1H-isoquinolin-2-yl}-2-oxo-ethyl)-cyclohexyl]-propionic acid]
- inhibition at 0.05 µg/mL (DGAT1 enzyme): ≥ 50%
- inhibition in vivo at up to 10 mg/kg (Male C57BL/6N mice): ≥ 60%
